Values joined by “and” are separate entries in the source; they are usually repeats but may differ in a detail not shown here. Equal values may be shown once.
Molecular target: hemoglobin (Homo sapiens, UniProt P68871+P69905)
Assay: Stability of hemoglobin in samples preserved at 37° C. in preservation solution containing no haptoglobin, Hb measured by latex agglutination method (Examples 8, 9 and Table 10)
Details: for Hb concentration / Recovery ratio with respect to Hb after 0 days: no phenylboronic acid, sugar 100 mmol/L; for recovery ratio of hemoglobin in the sample: sugar further added to phenylboronic acid 0.5 mmol/L, no haptoglobin, Feces 1, Feces 2, Feces 3
In short: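 Latex agglutination gave Hb concentration after storage at 37 °C for up to 62 h. Preservation solution (HEPES 40 mmol/L pH 6.8, BSA, NaN3, no haptoglobin) contained 0–2.5 mmol/L phenylboronic acid, some with added sugars (10–250 mmol/L). Samples held about 300 μg/L Hb, with or without 0.5% feces.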

Chain of hemoglobin (P69905 2-142): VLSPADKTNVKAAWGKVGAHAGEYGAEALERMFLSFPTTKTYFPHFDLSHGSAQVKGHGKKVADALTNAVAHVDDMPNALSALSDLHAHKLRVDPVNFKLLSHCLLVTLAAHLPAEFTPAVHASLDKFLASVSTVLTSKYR
Chain of hemoglobin (P68871 2-147): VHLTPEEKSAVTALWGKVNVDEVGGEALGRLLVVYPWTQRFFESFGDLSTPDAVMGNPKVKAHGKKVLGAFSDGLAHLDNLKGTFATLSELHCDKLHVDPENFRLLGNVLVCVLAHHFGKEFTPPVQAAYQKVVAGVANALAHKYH

Row | Compound | Hb concentration (Feces 1, 0 h at 37° C.) | Recovery ratio with respect to Hb after 0 days (Feces 1, 0 h at 37° C.) | Hb concentration (Feces 1, 16 h at 37° C.) | Recovery ratio with respect to Hb after 0 days (Feces 1, 16 h at 37° C.) | Hb concentration (Feces 1, 38 h at 37° C.) | Recovery ratio with respect to Hb after 0 days (Feces 1, 38 h at 37° C.) | Hb concentration (Feces 1, 62 h at 37° C.) | Recovery ratio with respect to Hb after 0 days (Feces 1, 62 h at 37° C.) | Hb concentration (Feces 2, 0 h at 37° C.) | Recovery ratio with respect to Hb after 0 days (Feces 2, 0 h at 37° C.) | Hb concentration (Feces 2, 16 h at 37° C.) | Recovery ratio with respect to Hb after 0 days (Feces 2, 16 h at 37° C.) | Hb concentration (Feces 2, 38 h at 37° C.) | Recovery ratio with respect to Hb after 0 days (Feces 2, 38 h at 37° C.) | Hb concentration (Feces 2, 62 h at 37° C.) | Recovery ratio with respect to Hb after 0 days (Feces 2, 62 h at 37° C.) | Hb concentration (No feces, 0 h at 37° C.) | Recovery ratio with respect to Hb after 0 days (No feces, 0 h at 37° C.) | Hb concentration (No feces, 16 h at 37° C.) | Recovery ratio with respect to Hb after 0 days (No feces, 16 h at 37° C.) | further results
1 | O=C(CO)[C@@H](O)[C@H](O)[C@H](O)CO [Fructose, fructose] | 281 µg/L | 100% | 134 µg/L | 48% | 35 µg/L | 12% | 0 µg/L | 0% | 268 µg/L | 100% | 60 µg/L | 22% | 1 µg/L | 0% | 0 µg/L | 0% | 284 µg/L | 100% | 246 µg/L | 86% | Hb concentration (Feces 3, 0 h at 37° C.): 263 µg/L and 269 µg/L; Recovery ratio with respect to Hb after 0 days (Feces 3, 0 h at 37° C.): 100%; Hb concentration (Feces 3, 16 h at 37° C.): 51 µg/L and 57 µg/L; Recovery ratio with respect to Hb after 0 days (Feces 3, 16 h at 37° C.): 19% and 21%; Hb concentration (Feces 3, 38 h at 37° C.): 0 µg/L; Recovery ratio with respect to Hb after 0 days (Feces 3, 38 h at 37° C.): 0%; Hb concentration (Feces 3, 62 h at 37° C.): 0 µg/L; Recovery ratio with respect to Hb after 0 days (Feces 3, 62 h at 37° C.): 0%; Hb concentration (No feces, 38 h at 37° C.): 233 µg/L; Recovery ratio with respect to Hb after 0 days (No feces, 38 h at 37° C.): 82%; Hb concentration (No feces, 62 h at 37° C.): 230 µg/L; Recovery ratio with respect to Hb after 0 days (No feces, 62 h at 37° C.): 81%; recovery ratio of hemoglobin in the sample: further improved
2 | OC[C@@H](O)[C@@H](O)[C@H](O)[C@H](O)CO [Mannitol, mannitol] | 276 µg/L | 100% | 131 µg/L | 48% | 29 µg/L | 10% | 1 µg/L | 0% | 266 µg/L | 100% | 55 µg/L | 21% | 1 µg/L | 0% | 0 µg/L | 0% | 281 µg/L | 100% | 254 µg/L | 91% | Hb concentration (No feces, 38 h at 37° C.): 237 µg/L; Recovery ratio with respect to Hb after 0 days (No feces, 38 h at 37° C.): 84%; Hb concentration (No feces, 62 h at 37° C.): 235 µg/L; Recovery ratio with respect to Hb after 0 days (No feces, 62 h at 37° C.): 84%; recovery ratio of hemoglobin in the sample: further improved

Source: patent US12215140B2, “Method of stabilizing protein contained in specimen and solution for stabilizing protein contained in specimen” (EIKEN KAGAKU KABUSHIKI KAISHA, priority 2018, dated 2025)
